Reference: US8835433B2, “Optically pure diastereomers of 10-Propargyl-10-deazaaminopterin and methods of using same for the treatment of cancer” (Allos Therapeutics, Inc., priority 2010, dated 2014)

Legend:
[1] = system: SKBR-3 (breast cancer) human tumor cell line; test: MTS growth inhibition assay, SKBR-3; type: cell-based; details: SK-BR-3, SK-BR3 (breast), 3 h treatment, 72 h recovery
Protocol: (§1) The agents PDX, PDX-10a, PDX-10b, were evaluated for growth inhibitory activity against, MDA-MB-435, SKBR-3 and NCI-H460 human tumor cell lines. Growth inhibition was measured by MTS assay following three hours of continuous treatment and a seventy-two hour recovery incubation. The purpose of these studies was to determine the cytotoxic activity of the compounds in the tumor cell lines studies studied.
Materials and Methods. Preparation of PDX-10a and PDX-10b was performed as discussed in Examples 1-2. The PDX compounds were diluted in dimethylsulfoxide (DMSO) at a concentration of 20 mM. From this solution a stock solution of 2 mM was made by dilution with phosphate-buffered saline (PBS). This 2 mM stock solution in 10% DMSO/90% PBS was used to make 2× concentrations of the titration series in cell growth medium which was added to the cell cultures in a 1:1 ratio to make 1× concentrations. Cell lines—The human tumor cell lines: MDA-MB-435 (melanoma), SKBR-3 (breast cancer) and NCI-H460 (lung cancer) were cultured in RPMI medium (RPMI; Nova Tech, Grand Island, N.Y.) containing ten percent dialyzed fetal bovine serum (FBS; Nova Tech). […]
Single Agent Pulse Studies—Treatment with test agents or standard agents (controls) was initiated 24 hours after plating cells (Day 1). […] Following incubation, the viable cell number was quantified by the MTS assay described below. […]
MTS Assay—Cell viability was determined using the MTS assay. […] Formazan production was quantified by spectrophotometric measurement at 490 nm and is proportional to viable cell number. […] Absorbance (OD) values were measured using a Dynex HD microplate reader at a single wavelength of 490 nm.
(§2) Data Analysis—Data from each experiment was collected and expressed as OD490 versus the log10 of the test agent concentration. […]

[2] = Pharmacokinetics in dog (PDX-T-07054-D); type: in vivo; details: both sexes, dog, plasma, 0.7 mg/kg, dog, racemic mixture, males and females (mean)
Protocol: (§3) Bioanalytical methods were developed and validated for quantitation of the 2 pralatrexate C10 diastereomers (PDX-10a and PDX-10b) in human, rat and dog plasma and urine. The basic bioanalytical method involves extraction of PDX-10a and PDX-10b from the matrix utilizing C18 solid-phase extraction (SPE) cartridges followed by derivatization (methylation with acetyl chloride) of the diastereomers for separation detection. The derivatized extracts are injected on a chiral high-performance liquid chromatography (HPLC) column for quantitation of each diastereomer by liquid chromatography-tandem mass spectrometry (LC/MS/MS). The lower limit of quantitation (LLOQ) for both diastereomers in plasma and urine matrices was 0.5 ng/mL. […]

[3] = Pharmacokinetics in rat (PDX-T-07034-R); type: in vivo; details: both sexes, plasma, 5 mg/kg, racemic mixture, males and females (mean)
Protocol: as §3

[4] = Pharmacokinetics in human (PDX-008, noncompartmental); type: in vivo; details: both sexes, human, plasma, intravenous, 30 mg/m^2, human, racemic mixture, males and females (mean)
Protocol: Bioanalytical methods were developed and validated for quantitation of the 2 pralatrexate C10 diastereomers (PDX-10a and PDX-10b) in human, rat and dog plasma and urine. The basic bioanalytical method involves extraction of PDX-10a and PDX-10b from the matrix utilizing C18 solid-phase extraction (SPE) cartridges followed by derivatization (methylation with acetyl chloride) of the diastereomers for separation detection. The derivatized extracts are injected on a chiral high-performance liquid chromatography (HPLC) column for quantitation of each diastereomer by liquid chromatography-tandem mass spectrometry (LC/MS/MS). The lower limit of quantitation (LLOQ) for both diastereomers in plasma and urine matrices was 0.5 ng/mL.
In humans, PDX-10b clearance was approximately 50% lower for both renal clearance (CLren) and nonrenal clearance (CLnonren). The lower clearance and ˜2-fold lower volume of distribution at steady state (Vdss) of PDX-10b are likely responsible for the 2-fold higher plasma exposure of PDX-10b compared with PDX-10a that is observed in humans. However, the plasma concentration-time profiles for both diastereomers declined in parallel, and terminal elimination half-life (t1/2term) for both diastereomers was virtually identical. The biological cause for the observed stereoselectivity across species is unknown, but may be due to isomeric differences in plasma protein binding. Isomeric differences in tissue distribution and/or renal and hepatobiliary transport may contribute as well.

[5] = system: MDA-MB-435 (melanoma) human tumor cell line; test: MTS growth inhibition assay, MDA-MB-435; type: cell-based; details: 3 h treatment, 72 h recovery
Protocol: as §1
(§4) Materials and Methods. Preparation of PDX-10a and PDX-10b was performed as discussed in Examples 1-2. The PDX compounds were diluted in dimethylsulfoxide (DMSO) at a concentration of 20 mM. From this solution a stock solution of 2 mM was made by dilution with phosphate-buffered saline (PBS). This 2 mM stock solution in 10% DMSO/90% PBS was used to make 2× concentrations of the titration series in cell growth medium which was added to the cell cultures in a 1:1 ratio to make 1× concentrations. Cell lines—The human tumor cell lines: MDA-MB-435 (melanoma), SKBR-3 (breast cancer) and NCI-H460 (lung cancer) were cultured in RPMI medium (RPMI; Nova Tech, Grand Island, N.Y.) containing ten percent dialyzed fetal bovine serum (FBS; Nova Tech). Once cells reached seventy percent confluency, they were trypsinized and resuspended in an alternate media (RPMI containing five percent dialyzed FBS (Hyclone, Logan, Utah). One day prior to treatment (Day 0), cultures were suspended at a concentration of 1−7.5×10^4 cell/ml and 100 μl aliquots were plated into each well of a 96-well microtiter plate at a final concentration of 1×10^3-7.5×10^3 cells/well. Cells were incubated for 24 hours at 37° C. prior to exposure with agents.
(§5) Test Agents—racemic PDX, and individual diastereomers PDX-10a and PDX-10b were prepared as described above. Cells were treated 24 hours after plating (Day 1) with vehicle (media) alone or the above test agents for three hours at concentrations between 3 μM and 10 μM.
(§6) Single Agent Pulse Studies—Treatment with test agents or standard agents (controls) was initiated 24 hours after plating cells (Day 1). Cells were incubated at 37° C. with each of the test agents or a “chemococktail” (positive control) consisting of 215 μM Etoposide, 20 μM Taxol, 38.5 nM Velcade at final concentration for three hours. Following treatment, drug was removed, growth media added, and cells incubated at 37° C. for 72 hours. Following incubation, the viable cell number was quantified by the MTS assay described below. Experiments were repeated twice at the same concentrations. Results from these studies were used to calculate an IC50 value (concentration of drug that inhibits cell growth by 50% of the vehicle) for each compound. IC50 values were generated with Prizm software.
(§7) MTS Assay—Cell viability was determined using the MTS assay. This colorimetric procedure measures conversion of the MTS reagent (a tetrazolium salt) to formazan by living cells. Formazan production was quantified by spectrophotometric measurement at 490 nm and is proportional to viable cell number. For these studies, cells were cultured and treated as listed above. At the end of the treatment, 20 μl MTS tetrazolium (1.9 mg/ml in PBS, pH 6.0) was added to the cells for 1 hour at 37° C. Absorbance (OD) values were measured using a Dynex HD microplate reader at a single wavelength of 490 nm.
as §2

[6] = system: CWR22-RV1 (prostate) cell lines; test: MTS growth inhibition assay, CWR22-RV1; type: cell-based; details: Homo sapiens, CWR22Rv1, separate experiments
[7] = system: NCI-H460 (lung cancer) human tumor cell line; test: MTS growth inhibition assay, NCI-H460; type: cell-based
Protocol: as §1, §4, §5, §6, §7
Data Analysis—Data from each experiment was collected and expressed as OD490 versus the log10 of the test agent concentration. Using the statistical analysis package of the Prizm analytical software (GraphPad, San Diego, Calif.), a non-linear curve fit was performed which yielded the 50% inhibition concentration of the test article (IC50).

[8] = C1D1, 30 mg/m^2 (0.81 mg/kg), n = 10
[9] = C1D6 or C2D6, 30 mg/m^2 (0.81 mg/kg), n = 6

C#CCC(Cc1cnc2nc(N)nc(N)c2n1)c1ccc(C(=O)N[C@@H](CCC(=O)O)C(=O)O)cc1 (mixture of isomers) [PDX, (2S)-2-[[4-[(1RS)-1-[(2,4-diaminopteridin-6-yl)methyl]but-3-ynyl]benzoyl]amino]pentanedioic acid, reference compound]
IC50 [1]: 27.1 nM
AUC(0-inf) ([2]; Day 1, 0.7 mg/kg (14 mg/m^2)): 1560 ng·h/mL
Cmax ([2]; Day 1, 0.7 mg/kg (14 mg/m^2)): 1790 ng/mL
AUC(0-inf) ([2]; Day 281, 0.7 mg/kg (14 mg/m^2)): 1340 ng·h/mL
Cmax ([2]; Day 281, 0.7 mg/kg (14 mg/m^2)): 649 ng/mL
AUC(0-inf) ([3]; Day 1, 5 mg/kg (30 mg/m^2)): 4870 ng·h/mL
Cmax ([3]; Day 1, 5 mg/kg (30 mg/m^2)): 19200 ng/mL
AUC(0-inf) ([3]; Day 85, 5 mg/kg (30 mg/m^2)): 4500 ng·h/mL
Cmax ([3]; Day 85, 5 mg/kg (30 mg/m^2)): 14300 ng/mL
AUC(0-inf) [4, 8]: 4460 ng·h/mL
Cmax [4, 8]: 5820 ng/mL
AUC(0-inf) [4, 9]: 3530 ng·h/mL
Cmax [4, 9]: 4960 ng/mL
IC50 ([5]; Homo sapiens, MDA-MB-435, MDA-MB-435 (melanoma)): 129 nM
IC50 ([5]; MDA-MB-435 (melanoma)): 129 nM
IC50 [6]: 8.3 nM
IC50 ([7]; Homo sapiens, NCI-H460, NCI-H460 (lung), 3 h treatment, 72 h recovery, MTS): 100 nM
IC50 ([7]; Homo sapiens, NCI-H460, NCI-H460 repeat assay): 124 nM
IC50 ([7]; NCI-H460 repeat assay): 124 nM
